The experiment relates to HCV proteins in Rep5.1 cells (replicon cell line). Kind of experiment: Inhibitory activity of HCV: cell-based ELISA in replicon cell line Rep5.1 (decrease of HCV proteins). Further details: species or system hepatitis C virus. The note with it: Rep5.1 cells, 72 hours with drug. A digest of the protocol: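 Rep5.1 replicon cells (5000/well, DMEM-10 with 500 μg/ml G418) were given serially diluted drug 4 h after seeding. After 72 h, cells were fixed in methanol/acetone and HCV proteins detected by cell-based ELISA using replicon-specific patient plasma antibodies. IC50 is the concentration giving 50% protein decrease versus the no-drug control.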

Where [1] appears, read: Hepatitis C virus, 72 h, concentration at which 50% of HCV proteins was decreased, Table 2, read-out: IC50.
The mark [2] stands for this setting: Hepatitis C virus, 72 h, decrease of HCV proteins measured by HCV antibody, Table 1, read-out: Level (IC50 values classified).
Where [3] appears, read: concentration at which 50% of HCV proteins was decreased, Table 2, read-out: IC50.

Where two headings read alike, the source gives them in different places. Where only a bound is given, the exact number is not on record here.

In the case of `CC1=C(C(=O)OCc2ccc(C)cc2)CNC(=S)N1` [Compound 89, 6-methyl-2-thioxo-1,2,3,4-tetrahydro-pyrimidine-5-carboxylic acid 4-methyl-benzyl ester], the IC50 (commonly the concentration that inhibits the measured activity by half) was 800 nM under setting [1] and less than 1000 nM under setting [2].
As to `COc1ccc(COc2ccc(COC(=O)C3=C(C)NC(=S)NC3)cc2)cc1` [Compound 227, 6-methyl-2-thioxo-1,2,3,4-tetrahydro-pyrimidine-5-carboxylic acid 4-(4-methoxy-benzyloxy)-benzyl ester], the IC50 is less than 400 nM under setting [1] and less than 1000 nM under setting [2].
The like results for `CC1=C(C(=O)OCCc2ccsc2)C2(CCCC2)NC(=S)N1` [29′, 9-methyl-7-thioxo-6,8-diaza-spiro[4.5]dec-9-ene-10-carboxylic acid 2-thiophen-3-yl-ethyl ester] were, in that order, 12000 nM and 10000 to 20000 nM.
The like results for `COc1ccc(Br)cc1COC(=O)C1=C(C)NC(=S)NC1` [Compound 185, 6-methyl-2-thioxo-1,2,3,4-tetrahydro-pyrimidine-5-carboxylic acid 5-bromo-2-methoxy-benzyl ester] were, in that order, 400 nM and less than 1000 nM.
The like results for `CCCC1=C(C(=O)OCc2ccccc2)CNC(=S)N1` [Compound 25, 6-propyl-2-thioxo-1,2,3,4-tetrahydro-pyrimidine-5-carboxylic acid benzyl ester] were, in that order, 2000 nM and 1000 to 10000 nM.
For `CC1=C(C(=O)OCCc2cccc(Cl)c2)C(COC(=O)OCCOC(=O)c2ccccc2)NC(=S)N1` (stereo not drawn) [76″, 4-(2-benzoyloxy-ethoxycarbonyloxymethyl)-6-methyl-2-thioxo-1,2,3,4-tetrahydro-pyrimidine-5-carboxylic acid 2-(3-chloro-phenyl)-ethyl ester], the IC50 reads like this: under setting [1], 900 nM; under setting [2], less than 1000 nM.
For `C#CCOC(=O)C1=C(C)NC(=S)NC1` [Compound 159, 6-methyl-2-thioxo-1,2,3,4-tetrahydro-pyrimidine-5-carboxylic acid prop-2-inyl ester], the IC50 under setting [3] was greater than 100000 nM.
As to `COc1ccc(COC(=O)C2=C(C)NC(=S)NC2)c(F)c1` [Compound 177, 6-methyl-2-thioxo-1,2,3,4-tetrahydro-pyrimidine-5-carboxylic acid 2-fluoro-4-methoxy-benzyl ester], the IC50 reads like this: under setting [1], 2500 nM; under setting [2], 1000 to 10000 nM.
On the same counts, the results for `CSc1ccc(COC(=O)C2=C(C)NC(=S)NC2)s1` [Compound 217, 6-methyl-2-thioxo-1,2,3,4-tetrahydro-pyrimidine-5-carboxylic acid 5-methylsulfanyl-thiophen-2-ylmethyl ester] are 7000 nM and 1000 to 10000 nM.
Consider `COc1cc(COC(=O)C2=C(C)NC(=S)NC2)cc(Br)c1OC` [Compound 178, 6-methyl-2-thioxo-1,2,3,4-tetrahydro-pyrimidine-5-carboxylic acid 3-bromo-4,5-dimethoxy-benzyl ester], for which the IC50 reads like this: under setting [1], 1500 nM; under setting [2], 1000 to 10000 nM.
As to `O=C(OCCc1ccsc1)C1=C(CO)NC(=S)NC1` [67′, 6-hydroxymethyl-2-thioxo-1,2,3,4-tetrahydro-pyrimidine-5-carboxylic acid 2-thiophen-3-yl-ethyl ester], the IC50 was greater than 100000 nM under setting [1] and greater than 20000 nM under setting [2].
The like results for `CC1=C(C(=O)OCCCc2ccco2)CNC(=S)N1` [Compound 250, 6-methyl-2-thioxo-1,2,3,4-tetrahydro-pyrimidine-5-carboxylic acid 3-furan-2-yl-propyl ester] were, in that order, 400 nM and less than 1000 nM.
As to `CC1=C(C(=O)OCC#Cc2ccsc2)CNC(=S)N1` [Compound 240, 6-methyl-2-thioxo-1,2,3,4-tetrahydro-pyrimidine-5-carboxylic acid 3-thiophen-3-yl-prop-2-inyl ester], under setting [3], the IC50 was less than 400 nM.
